Data published in patent US6274590A, “Method of treating skin related conditions” (G. D. Searle & Co., priority 2000, dated 2001).
Blank lines part the entries; values can stand above or below the molecule they belong to.

What was measured:
[1] = tested on: carrageenan-induced hyperalgesic foot withdrawal; experiment: Rat Carrageenan-induced Analgesia Test; assay type: in vivo, rat (male Sprague-Dawley); details: oral, 3 h after carrageenan
Procedure: (§1) The carrageenan foot edema test was performed with materials, reagents and procedures essentially as described by Winter, et al., (Proc. Soc. Exp. Biol. Med., 111, 544 (1962) Male Sprague-Dawlev rats were selected in each group so that the average body weight was as close as possible. Rats were fasted with free access to water for over sixteen hours prior to the test. The rats were dosed orally (1 mL) with compounds suspended in vehicle containing 0.5% methylcellulose and 0.025% surfactant, or with vehicle alone. one hour later a subplantar injection of 0.1 mL of 1% solution of carrageenan/sterile 0.9% saline was administered and the volume of the injected foot was measured with a displacement plethysmometer connected to a pressure transducer with a digital indicator. Three hours after the injection of the carrageenan, the volume of the foot was again measured. The average foot swelling in a group of drug-treated animals was compared with that of a group of placebo-treated animals and the percentage inhibition of edema was determined (Otterness and Bliven, Laboratory Models for Testing NSAIDs, in Non-steroidal Anti-Inflammatory Drugs, (J. Lombardino, ed. 1985)).
The analgesia test using rat carrageenan was performed with materials, reagents and procedures essentially as described by Hargreaves, et al., (Pain, 32, 77 (1988)). Male Sprague-Dawley rats were treated as previously described, for the Carrageenan Foot Pad Edema test. Three hours after the injection of the carrageenan, the rats were placed in a special plexiglass container with a transparent floor having a high intensity lamp as a radiant heat source, positionable under the floor. After an initial twenty minute period, thermal stimulation was begun on either the injected foot or on the contralateral uninjected foot. […] The time until the rat withdraws its foot was then measured. The withdrawal latency in seconds was determined for the control and drug-treated groups, and percent inhibition of the hyperalgesic foot withdrawal determined.

carrageenan foot edema = experiment: Rat Carrageenan Foot Pad Edema Test; assay type: in vivo, rat (male Sprague-Dawley); details: @ 10 mg/kg body weight, oral, 3 h after carrageenan
Procedure: as §1

Murine COX I = biological target: T1, Murine COX I (Mus musculus, UniProt P22437); experiment: COX I activity in vitro (PGE2 ELISA, recombinant enzyme); assay type: biochemical; details: arachidonic acid 10 μM, read-out: Murine COX I ID50
T1 construct: A 2.0 kb fragment containing the coding region; made in house; host or cells: SF9 insect cells (recombinant baculovirus, pVL1393)
T1 sequence (P22437 27-602): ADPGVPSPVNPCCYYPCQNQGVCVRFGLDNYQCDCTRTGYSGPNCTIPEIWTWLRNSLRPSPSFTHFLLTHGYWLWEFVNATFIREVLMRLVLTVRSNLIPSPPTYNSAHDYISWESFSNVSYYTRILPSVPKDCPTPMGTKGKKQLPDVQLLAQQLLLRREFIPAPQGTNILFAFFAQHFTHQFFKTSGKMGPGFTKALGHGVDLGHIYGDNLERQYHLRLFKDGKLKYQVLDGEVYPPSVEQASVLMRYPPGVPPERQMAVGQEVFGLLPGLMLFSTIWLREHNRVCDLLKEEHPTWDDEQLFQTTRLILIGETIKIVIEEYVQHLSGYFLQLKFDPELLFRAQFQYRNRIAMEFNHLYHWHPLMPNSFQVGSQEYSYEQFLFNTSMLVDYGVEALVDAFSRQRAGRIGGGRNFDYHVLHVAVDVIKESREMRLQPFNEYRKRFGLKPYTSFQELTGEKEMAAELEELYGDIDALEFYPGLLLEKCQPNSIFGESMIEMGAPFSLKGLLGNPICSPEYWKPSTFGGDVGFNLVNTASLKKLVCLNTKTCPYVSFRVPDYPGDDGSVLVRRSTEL
Procedure: (§2) A 2.0 kb fragment containing the coding region of either human or murine COX-I or human or murine COX-II was cloned into a BamH1 site of the baculovirus transfer vector pVL1393 to generate the baculovirus transfer vector. Recombinant baculoviruses were isolated by transfecting 4 μg of baculovirus transfer vector DNA into SF9 cells (2×10e8) along with 200 ng of linearized baculovirus plasmid DNA by the calcium phosphate method. Recombinant viruses were purified by three rounds of plaque purification and high titer (10E7-10E8 pfu/ml) stocks of virus were prepared. For large scale production, SF9 insect cells were infected in 10 liter fermentors (Bioprocess group) 0.5×10^6 /ml) with the recombinant baculovirus stock such that the multiplicity of infection was 0.1. […] The homogenate was centrifuged at 10,000×G for 30 minutes, and the resultant supernatant was stored at -80° C. before being assayed for COX activity.
(§3) COX activity was assayed as PGE2 formed/μg protein/time using an ELISA to detect the prostaglandin released. CHAPS-solubilized insect cell membranes containing the appropriate COX enzyme were incubated in a potassium phosphate buffer (50 mM, pH 8.0) containing epinephrine, phenol, and heme with the addition of arachidonic acid (10 μM). […] The PGE2 formed was measured by standard ELISA technology (Cayman Chemical).

Murine COX II = biological target: T2, Murine COX II (Mus musculus, UniProt Q05769); experiment: COX II activity in vitro (PGE2 ELISA, recombinant enzyme); assay type: biochemical; details: arachidonic acid 10 μM, read-out: Murine COX II ID50
T2 construct: A 2.0 kb fragment containing the coding region; made in house; host or cells: SF9 insect cells (recombinant baculovirus, pVL1393)
T2 sequence (Q05769 18-604): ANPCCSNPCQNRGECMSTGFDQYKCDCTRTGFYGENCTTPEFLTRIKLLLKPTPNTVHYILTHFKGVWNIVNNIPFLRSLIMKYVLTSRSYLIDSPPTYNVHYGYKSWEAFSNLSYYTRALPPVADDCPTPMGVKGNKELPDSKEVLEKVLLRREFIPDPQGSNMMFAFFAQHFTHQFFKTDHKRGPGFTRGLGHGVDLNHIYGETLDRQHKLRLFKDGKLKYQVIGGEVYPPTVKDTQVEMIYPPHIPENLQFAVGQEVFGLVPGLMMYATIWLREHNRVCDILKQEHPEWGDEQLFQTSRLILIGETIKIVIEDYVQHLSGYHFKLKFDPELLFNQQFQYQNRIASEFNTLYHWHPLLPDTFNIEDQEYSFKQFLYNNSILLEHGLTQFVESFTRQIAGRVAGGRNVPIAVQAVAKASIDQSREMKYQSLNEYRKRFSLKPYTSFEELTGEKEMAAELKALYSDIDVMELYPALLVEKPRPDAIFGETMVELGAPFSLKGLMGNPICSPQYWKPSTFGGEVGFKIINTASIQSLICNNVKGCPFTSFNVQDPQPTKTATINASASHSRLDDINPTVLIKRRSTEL
Procedure: as §2, §3

[2] = reported in cited literature or patents; cited from earlier work
prostaglandin synthetase = details: U.S. Pat. No. 4,820,827; cited from earlier work
[3] = Gen. Pharmac., 24, 105 (1993); cited from earlier work
COX II enzyme = details: J. Biol. Chem., 268, 6610 (1993); cited from earlier work

SMILES: CS(=O)(=O)c1ccc(-c2csc(Br)c2-c2ccc(F)cc2)cc1 [Example 2, 4-(4-Methylsulfonylphenyl)-3-(4-fluorophenyl)-2-bromothiophene]
ANALGESIA % Inhibition ([1]; @3 mpk): 0%
RAT PAW EDEMA % Inhibition (carrageenan foot edema): 30%

SMILES: CS(=O)(=O)c1ccc(-c2cscc2-c2ccc(F)cc2)cc1 [Example 1, 3-(4-Methylsulfonylphenyl)-4-(4-fluorophenyl)thiophene]
ANALGESIA % Inhibition ([1]; @ 20 mg/kg body weight): 8%

IC50 (Murine COX I): > 100 µM
IC50 (Murine COX II): 5.5 µM
SMILES: CCOC(=O)c1sc(C(=O)O)c(-c2ccc(F)cc2)c1-c1ccc(S(C)(=O)=O)cc1 [Example 8, 2-Ethoxycarbonyl-4-(4-fluorophenyl)-3-(4-methanesulfonylphenyl)-thienyl-5-carboxylic acid]

SMILES: CSc1ccc(-c2sc(Br)cc2-c2ccc(F)cc2)cc1 [5-bromo-2-(4-methylthiophenyl)-3-(4-fluorophenyl)thiophene]
antiinflammatory activity [2]: antiinflammatory
prostaglandin synthetase inhibitory activity (prostaglandin synthetase): prostaglandin synthetase inhibitory activity

SMILES: CS(=O)(=O)c1ccc(-c2cscc2-c2ccc(F)nc2)cc1 [Example 14]
ANALGESIA % Inhibition ([1]; @ 20 mg/kg body weight): 28%
RAT PAW EDEMA % Inhibition (carrageenan foot edema): 30%

SMILES: COc1ccc(-c2cscc2-c2ccc(OC)cc2)cc1 [Example 4, 3,4-Bis(4-methoxyphenyl)thiophene]
RAT PAW EDEMA % Inhibition (carrageenan foot edema): 22%

SMILES: CCOC(=O)CCc1scc(-c2ccccc2)c1-c1ccccc1 [ethyl 3,4-diphenylthiophene-2-propionate]
antiinflammatory activity [2]: antiinflammatory activity

SMILES: CS(=O)(=O)Nc1ccc([N+](=O)[O-])cc1OC1CCCCC1 [N-(2-cyclohexyloxy-4-nitrophenyl)methanesulfonamide]
antiinflammatory activity [2]: antiinflammatory
gastric side effects [3]: lacks gastric side effects

SMILES: CS(=O)(=O)c1ccc(-c2c(Br)sc(Br)c2-c2ccc(F)cc2)cc1 [Example 3, 4-(4-Methylsulfonylphenyl)-3-(4-fluorophenyl)-2,5-dibromothiophene]
IC50 (Murine COX I): 100 µM

SMILES: COc1ccc2cc(CC(=O)O)ccc2c1 [6-methoxy-2-napthylacetic acid]
inhibition of the COX II enzyme (COX II enzyme): selectively inhibit the COX II enzyme

SMILES: Cc1cc(F)ccc1-c1cscc1-c1ccc(S(C)(=O)=O)cc1 [Example 15]
RAT PAW EDEMA % Inhibition (carrageenan foot edema): 20%
